In patent publication US20200171132A1, “METHODS OF INHIBITING FUNGAL CERAMIDE SYNTHASE FOR TREATMENT OF CRYPTOCOCCUS NEOFORMANS INFECTION” (The Research Foundation for the State University of New York, priority 2017, published 2020):

System: fungal Cer1 (Cn Cer1)
Test: High throughput ceramide synthase assay (96-well, NBD-sphingosine, SPE)
Format: biochemical, Cryptococcus neoformans
Conditions: 1 micromolar; wells contained 10 compounds each; 1 hour at 37° C.
Description: The compounds were first diluted to 1 mM each (1:10 dilution with 10% DMSO) with a physiological buffer (YNB medium buffered with HEPES at pH 7.4 containing 2% glucose) and subsequently diluted to 300 μM (1:3.3 dilution) with the same medium (3% DMSO). A 100-μl aliquot of this solution was placed into each well of a 96-well master plate and stored at −20° C. until use. Each well in the screening master plates contained 10 compounds at 1 μM each. The ceramide synthase reaction was performed in a 96-well plate format using fungal Cer1 (Cn Cer1) or human ceramide synthase (Hu-Cer1, -Cer2, -Cer3, -Cer4, -Cer5, or -Cer6) enzyme, containing NBD-Sphingosine (NBD-Sph) (Avanti Polar Lipids) and 18:0 Coenzyme A (Stearoyl Coenzyme A, Avanti Polar Lipids) as substrates using the following concentrations: 10 μM NBD-Sph and 50 μM fatty acid CoA. The reaction mixture was prepared in HEPES buffer (20 mM HEPES, pH 7.2, 25 mM KCl, 250 mM sucrose, and 2 mM MgCl2). Library compounds were added and plate incubated for 1 hour at 37 C. The lipid product (NBD-ceramide) was separated using solid phase extraction (SPE) column chromatography using Strata® C18-E, 96 well plates (Phenomenex). Reaction product was measured using a plate reader.
The Cn Cer1 enzyme is expressed using the pYES-GAL1 galactose inducible system in Saccharomyces cerevisiae whereas the mammalian ceramide synthases (Cer1-6) are induced with tetracycline using the Tet-On System in HCT-116 cells under the control of Geneticin and Blasticidin. Cn Cer1 or Hu Cer1-6 enzymes were extracted using the tag system and enriched in microsomal preparation. Before using the enzymes in the plate screening, each preparation was tested for ceramide activity using the TLC assay illustrated in FIG. 11, to make sure the ceramide synthase activity works as expected. Appropriate negative controls (e.g. Cn Cer1 on glucose or Hu Cer1 in absence of tetracycline) were included in each plate during the screening.
The ceramide synthase assay was performed using NBD-Sphingosine (NBD-Sph) (Avanti polar lipids) and 18:0 Coenzyme A (Stearoyl Coenzyme A, Avanti polar lipids) as substrates using the following concentrations: 10 μM NBD-Sph and 50 μM fatty acid CoA. Enzyme(s)—ceramide synthases—were prepared using microsome purification of the yeasts or mammalian expression system. For yeast, the S. cerevisiae strain BY4741 expressing C. neoformans ceramide synthase 1 using the pYES GAL1 expression system was grown in 200 ml of liquid YNB 2% galactose medium for 16 hours. The same strain grown in the same medium but containing 2% glucose was used as a negative control because the Cn Cer1 gene is under the control of the galactose promoter (GAL1). Cells were then harvested by centrifugation, resuspended in 2 ml of Lysis Buffer (20 mM HEPES/KOH, pH 7.4, 25 mM KCl, 2 mM MgCl2, 250 mM sorbitol) and 50 μl of proteinase inhibitor mixture (Sigma-Aldrich)/g of cells, and broken by bead-bashing at 4° C. for 1.5 h. Cell debris were removed by centrifuging at 1000 g at 4° C. for 10 min. The supernatant was loaded on a 60% (w/w) sucrose cushion and centrifuged at 100,000 g for 1 h. The microsomes were collected from the interphase, snap frozen in liquid nitrogen, and stored at −80° C. until use.
The high throughput assays were adapted from the Avanti Ceramide synthase assay kit (https://avantilipids.com/product/640011/). The reactions were first downsized to 20 μl in a 96-well plate format using human ceramide synthases (Cer1, […], Cer3, Cer4, Cer5, or Cer6) along with Cn Cer1. Lipid product (NBD-ceramide) was separated using solid phase extraction (SPE) column chromatography using Strata® C18-E, 96 well plates (Phenomenex). The reaction product was measured using a plate reader, as in FIG. 12. The Z′ score of the assay is 0.80194, which is considered excellent (FIG. 12).
An initial screening yielded compounds 1-10 (Table 3). […]

Row | Compound | % reduction in activity (inhibition of Cn Cer1 synthse activity) [%]
1 | CN1CCC2(CC1)CCN(C(=O)c1cccc(Oc3ncccn3)c1)C2 [Compound 42] | 84.91
2 | Cc1cc2[nH]c(CN3CCCC3c3nc4cc(F)ccc4[nH]3)cc(=O)n2n1 (stereo not drawn) [Compound 47] | 84.91
3 | CCN(Cc1ccc(-n2cccn2)cc1)CC1CCOCC1 [Compound 23] | 86.1
4 | C=CCc1cc(-c2[nH]cnc2-c2ccccc2)cc(OC)c1O [Compound 3] | 94.43
5 | O=C1NCC(=O)N2CCN(C(=O)c3cccc4c3NCCC4)CC12 (stereo not drawn) [Compound 44] | 84.91
6 | CCC[C@@H]1C[C@H](NC(C)=O)C[C@H](C2CCCCC2)O1 [Compound 26] | 86.1
7 | Fc1cccc(CN2CCN(Cc3cnc(NCC4CCCO4)nc3)CC2)c1 (stereo not drawn) [Compound 20] | 87.67
8 | CC(=O)N(CCc1ccc(F)cc1)CC1=CCCN(CCO)C1 [Compound 45] | 84.91
9 | Cc1nc[nH]c1-c1nccn1C(C)c1cccs1 (stereo not drawn) [Compound 16] | 87.67
10 | O=C1NCC2(CCCN(c3nnnn3-c3ccccc3)CC2)O1 (stereo not drawn) [Compound 32] | 85.73
11 | Cn1ccnc1CN(Cc1cc2ccccc2o1)C1CC1 [Compound 5] | 94.43
12 | Cc1nc(CC(=O)NCCSc2nnc(C)s2)cs1 [Compound 30] | 86.1
13 | O=C(NCC1(Cn2cccn2)CC1)c1ccccc1N1CCOCC1 [Compound 24] | 86.1
14 | Cc1ccc(F)cc1NC(=O)N1CCOC2(CNCCOC2)C1 (stereo not drawn) [Compound 11] | 87.67
15 | Cc1cc(C)n2nc(C(=O)N3CCC4(CN(C)C(=O)O4)C3)cc2n1 (stereo not drawn) [Compound 38] | 85.73
16 | CN1CC2(CCCN(C(=O)c3ccc4c(c3)OCCN4C)CC2)OC1=O (stereo not drawn) [Compound 13] | 87.67
17 | CCN(CC1CCCCO1)C(=O)c1cccc(-n2cnnc2)c1 (stereo not drawn) [Compound 7] | 94.43
18 | O=C(NCCC1=CCCN(CCCF)C1)c1cccs1 [Compound 22] | 86.1
19 | COc1cc(F)c(C2CC(=O)Nc3cc(N4CCNC4=O)ccc32)cc1OC (stereo not drawn) [Compound 28] | 86.1
20 | FC(F)(F)C1CCN(Cc2cc3n(n2)CCNC3)CC1 [Compound 19] | 87.67
21 | CNc1ncc(CN(C)C(=O)c2cnn[nH]2)cn1 [Compound 46] | 84.91
22 | CC(C)CN1CC(C(=O)NCc2nncn2C2CCCCC2)CC1=O (stereo not drawn) [Compound 8] | 94.43
23 | Cc1ccsc1C(=O)N1CCN2C(=O)CNC(=O)C2C1 (stereo not drawn) [Compound 4] | 94.43
24 | CCc1ncc(C(=O)N2CCN(CC(C)C)C(=O)C2C)cn1 (stereo not drawn) [Compound 27] | 86.1
25 | CN(C)CC1COCCN(Cc2c(-c3ccccc3)nc3ncccn23)C1 (stereo not drawn) [Compound 39] | 85.73

Row | Compound | % reduction in activity (inhibition of Cn Cer1 synthse activity) [%]
26 | c1cncc(COC2CCN(Cc3ccc(-c4cc[nH]n4)s3)CC2)c1 [Compound 12] | 87.67
27 | Cc1noc(C)c1-n1c(CCCN2CCOCC2)n[nH]c1=O [Compound 36] | 85.73
28 | Cc1cc2c(cc1O)NC(=O)CC2c1c[nH]nc1-c1ccc(F)cc1 (stereo not drawn) [Compound 29] | 86.1
29 | CCn1c(C2CCN(C(=O)C(N)CC3CCCC3)CC2)nn(C)c1=O (stereo not drawn) [Compound 15] | 87.67
30 | O=C(Nc1cccnc1)c1ccc(-c2cccc3cccnc23)o1 [Compound 41] | 84.91
31 | Clc1cccc2ccc(CN3CCn4cncc4C3)nc12 [Compound 17] | 87.67
32 | CC(C)Cc1n[nH]c(Cn2nc(Cc3ccccc3)c3ccccc3c2=O)n1 [Compound 37] | 85.73
33 | COc1cccc2c1OCCCN(C(=O)c1cn3c(n1)CNCC3)C2 [Compound 18] | 87.67
34 | C/C(=C\c1ccccc1)CN1CCC(CN)C1 (stereo not drawn) [Compound 25] | 86.1
35 | CCCCN(Cc1ccco1)C(=O)c1cc(C)[nH]c(=O)c1 [Compound 21] | 86.1
36 | CC(=O)N(C)CC1=CCCN(Cc2cc(F)c(F)cc2F)C1 [Compound 43] | 84.91
37 | O=C1NCC2(CCCN(c3ncnc4[nH]ccc34)CC2)O1 (stereo not drawn) [Compound 31] | 85.73
38 | CCSc1nc(CC(=O)N2[C@@H]3CC[C@H]2C[C@@H](O)C3)cs1 [Compound 35] | 85.73
39 | CN(Cc1cc2cc(F)ccc2[nH]1)C(=O)c1ccccc1C1CCNC1 (stereo not drawn) [Compound 14] | 87.67
40 | CC(Cn1ccc2ccccc21)NC(=O)c1ccc(-n2cnnc2)cc1 (stereo not drawn) [Compound 9] | 94.43
41 | OCc1cc(-c2ccc3ccccc3n2)ccc1F [Compound 2] | 94.43
42 | CCn1c(C2CCN(C(=O)C(C)n3cncn3)CC2)nn(C)c1=O (stereo not drawn) [Compound 34] | 85.73
43 | CCc1nc(C)sc1CNc1nc(-c2cccnc2)nc2c1cnn2C [Compound 50] | 84.91
44 | Cc1nc(C(C)C)ncc1C(=O)N(C)Cc1snnc1C [Compound 33] | 85.73
45 | NC(=O)c1cccc(CC2CCN(C(=O)CCn3ccccc3=O)C2)c1 (stereo not drawn) [Compound 40] | 85.73
46 | O=C(c1cnn[nH]1)N1CCC(Oc2ncccn2)CC1 [Compound 48] | 84.91
47 | Cc1ccccc1-n1cc(CN(C)C(=O)c2ccccc2C2CCNC2)cn1 (stereo not drawn) [Compound 49] | 84.91
48 | CCN(C/C=C/c1ccccc1)C(=O)c1cc2cccnc2nc1C [Compound 6] | 94.43
49 | CC(C)Nc1cc(-c2ccc3c(c2)OCO3)nc(N)n1 [Compound 1] | 94.43
50 | CCN(C/C=C/c1ccccc1)C(=O)c1ccc(-n2cnnc2)cc1 [Compound 10] | 94.43

System: Pma1
Test: Glucose dependent medium acidification (plasma membrane H+-ATPase activity)
Format: cell-based, Cryptococcus neoformans
Conditions: Δgcs1 strain upon treatment
Description: Glucose-dependent medium acidification was monitored by a modification of a procedure described previously (Perlin, Brown et al. 1988, Soteropoulos, Vaz et al. 2000). Cultures of Cn strain WT, Δcer1, Δcer1+CER1, Δgcs1 were grown to mid-log Phase in YPD. The next day, these cells were transferred to DMEM at pH 4.0 and allowed to grow under shaking conditions for 24 hours. These cells were then harvested and washed using 100 mM KCl, pH 5.0. These pellets were then resuspended in 10 ml KCl, pH 5.0 and incubated under shaking condition at 30° C. These samples were then stored at 4° C. overnight prior to use. For the assay, cells were concentrated to a final A590 of approximately 2.0. 20 μl cells along with 155 μl of bromophenolblue (50 μg/ml) in 100 mM KCl, pH 5.0. 20 μl 20% (w/v) glucose was added to initiate the reaction. Medium acidification was monitored at 590 nm over a period of 5 hours (data point every 3 mins) in a microplate reader (SpectraMax M5).

Row | Compound | Pma1 activity
51 | Aureobaisdin A [AbA] | reduced
